# Experimental data published in patent US8349827B2, “Substituted dipyrido-pyrimido-diazepine and benzo-pyrido-pyrimido compounds” (ArQule, Inc., priority 2009, dated 2013).
# How the values were obtained:
# KATO III = experiment: MTS assay, KATO III cells; format: cell-based; conditions: Homo sapiens, 72 hours
# Experimental: (§1) Cells were maintained at 37° C., 5% CO2 in DMEM media supplemented with 1% fetal bovine serum, penicillin/streptomycin and fungizone (Invitrogen). Cells were seeded into 96-well tissue culture plates at 3000 per well and cultured at 37° C. for 18 hours. Test compounds were dissolved and diluted to 300× in DMSO then diluted 1:40 in DMEM. Cells were incubated with test compounds for 72 hours followed by incubation with tetrazolium compound (3-(4,5-dimethylthiazol-2-yl)-5-(3-carboxymethoxyphenyl)-2-(4-sulfophenyl)-2H-tetrazolium, inner salt; MTS) and the electron coupling reagent, phenazine methosulfate (PMS) for 4 hours. […] The ability of compounds to inhibit cell growth in this assay is correlated with the reduction of dehydrogenase enzyme activity found in metabolically active cells. The measurement of the absorbance of the formazan was assessed using an ENVISION™ (Perkin Elmer) microplate reader at 492 nm. The calculated IC50 value is the concentration of the test compound that causes a 50% decrease in the absorbance.
# NCI-H1299 = experiment: MTS assay, NCI-H1299 cells; format: cell-based; conditions: Homo sapiens, 72 hours
# Experimental: as §1
# ABL T315I = ABL T315I (Homo sapiens, UniProt P00519, T315I); experiment: ABL Kinase Activity Assay (Elisa), ABL T315I; format: biochemical; conditions: ATP 100 μM, read-out: Abl(T315I) Enzymetic assay (Elisa) % inhibition
# Experimental: (§2) ABL Kinase Activity Assay
# (§3) The disclosed compounds were assayed for their ability to inhibit the activity of ABL kinase. Nunc Maxisorb plates were coated with streptavidin by overnight incubation with 100 μL per well of 1 μg/ml streptavidin in DPBS. Prior to the experiment, the plates were washed with TBST (3×200 μL) and blocked for at least 3 hours by adding 150 μL of 5% BSA/TBST. The plates were washed with TBST (3×200 μL/well) and left dry immediately before the capture step.
# (§4) The disclosed test compounds and controls (Gleevec) were prepared using the following assay buffer@10× desired final concentration (50 mM Tris pH 7.0, 0.02 mg/ml BSA, 10 mM MgCl2, 0.1 mM Na3VO4, 1 mM EGTA, 0.01% NP-40, 1 mM DTT in 10% glycerol/water). In a reaction plate, 5 μl test article (or control) and 30 μl ABL or ABL T315I (0.089 nM final concentration, in the above buffer) were added rapidly. The plate was incubated for 20 minutes. To the reaction plate was added ATP (100 μM final concentration) and AblTide (128 nM final concentration) in a volume of 15 μl. The plate was incubated at room temperature for one hour.
# (§5) From the reaction plate, 40 μl was transferred to the streptavidin coated plate. The capture plate was incubated at room temperature for 30 minutes, then washed 3× with TBST. To the capture plate was added 100 μL/well of cell signaling anti-phospho tyrosine at a dilution of 1:3000 in 2% BSA/TBST. The plate was incubated for two hours at room temperature then washed 3× with TBST. To the capture plate was added 100 μL/well of alkaline phosphatase tagged goat anti mouse antibody at a dilution of 1:4000 in 2% BSA/TBST. The plate was incubated for one hour at room temperature then washed 3× with TBST.
# (§6) The fluorescent readout was initiated by the addition of 100 μl/well of Attophos reagent (6 mg/10 mL). The reading was done on the Perkin Elmer Envision system.
# ABL = ABL (Homo sapiens, UniProt P00519); experiment: ABL Kinase Activity Assay (Elisa), ABL; format: biochemical; conditions: ATP 100 μM, read-out: Abl Enzymetic assay (Elisa) % inhibition
# Experimental: as §2, §3, §4, §5, §6
# DLD-1 = experiment: MTS assay, DLD-1 cells; format: cell-based; conditions: Homo sapiens, 72 hours
# Experimental: as §1
# MDA-MB-231 = experiment: MTS assay, MDA-MB-231 cells; format: cell-based; conditions: Homo sapiens, 72 hours
# Experimental: as §1
# PACA-2 = experiment: MTS assay, PACA-2 cells; format: cell-based; conditions: 72 hours
# Experimental: as §1
# PC-3 = experiment: MTS assay, PC-3 cells; format: cell-based; conditions: Homo sapiens, 72 hours
# Experimental: as §1
SMILES,inhibition at 10 µM (ABL T315I) [%],inhibition at 10 µM (ABL) [%],inhibition at 10 µM (KATO III) [%],inhibition at 10 µM (NCI-H1299) [%],inhibition at 10 µM (DLD-1) [%],inhibition at 10 µM (MDA-MB-231) [%],inhibition at 10 µM (PACA-2) [%],inhibition at 10 µM (PC-3) [%]
"Cc1cnc(CNc2ncc3c(n2)-c2cccnc2Nc2cnccc2-3)cn1 [Example 6, N-[(5-methylpyrazin-2-yl)methyl]-9H-dipyrido[2,3-b:4′,3′-f]pyrimido[4,5-d]azepin-2-amine]",< 50,< 50,< 50,< 50,,,,
"Fc1ccc(CNc2ncc3c(n2)-c2cccnc2Nc2cnccc2-3)cc1Cl [Example 9, N-(3-chloro-4-fluorobenzyl)-9H-dipyrido[2,3-b:4′,3′-f]pyrimido[4,5-d]azepin-2-amine]",80 to 100,80 to 100,50 to 79,< 50,50 to 79,< 50,< 50,
"c1ccc(CNc2ncc3c(n2)-c2cccnc2Nc2cnccc2-3)cc1 [Example 12, N-benzyl-9H-dipyrido[2,3-b:4′,3′-f]pyrimido[4,5-d]azepin-2-amine]",80 to 100,80 to 100,< 50,< 50,< 50,< 50,,
"Fc1ccccc1CNc1ncc2c(n1)-c1cccnc1Nc1cnccc1-2 [Example 20, N-(2-fluorobenzyl)-9H-dipyrido[2,3-b:4′,3′-f]pyrimido[4,5-d]azepin-2-amine]",80 to 100,80 to 100,< 50,< 50,< 50,< 50,< 50,
"FC(F)(F)c1cccc(CNc2ncc3c(n2)-c2cccnc2Nc2cnccc2-3)c1 [Example 30, N-[3-(trifluoromethyl)benzyl]-9H-dipyrido[2,3-b:4′,3′-f]pyrimido[4,5-d]azepin-2-amine]",80 to 100,80 to 100,80 to 100,< 50,50 to 79,,< 50,
"COc1cc(CNc2ncc3c(n2)-c2cccnc2Nc2cnccc2-3)cc(OC)c1 [Example 36, N-(3,5-dimethoxybenzyl)-9H-dipyrido[2,3-b:4′,3′-f]pyrimido[4,5-d]azepin-2-amine]",80 to 100,50 to 79,< 50,< 50,< 50,,< 50,
"c1cnc2c(c1)-c1nc(NCCCN3CCCC3)ncc1-c1ccncc1N2 [Example 37, N-(3-pyrrolidin-1-ylpropyl)-9H-dipyrido[2,3-b:4′,3′-f]pyrimido[4,5-d]azepin-2-amine]",,50 to 79,,< 50,,< 50,< 50,
"CCN(CC)CCCNc1ncc2c(n1)-c1cccnc1Nc1cnccc1-2 [Example 44, N′-9H-dipyrido[2,3-b:4′,3′-f]pyrimido[4,5-d]azepin-2-yl-N,N-diethylpropane-1,3-diamine]",,< 50,80 to 100,< 50,< 50,< 50,< 50,
"COc1ccc(CNc2ncc3c(n2)-c2cccnc2Nc2cnccc2-3)cc1OC [Example 47, N-(3,4-dimethoxybenzyl)-9H-dipyrido[2,3-b:4′,3′-f]pyrimido[4,5-d]azepin-2-amine]",80 to 100,80 to 100,< 50,50 to 79,50 to 79,< 50,< 50,
"Clc1cccc(CNc2ncc3c(n2)-c2cccnc2Nc2ccccc2-3)c1 [Example 61, N-(3-chlorobenzyl)-9H-pyrido[2,3-b]pyrimido[4,5-d][1]benzazepin-2-amine]",,,< 50,< 50,< 50,< 50,,< 50
"OCCc1cccc(Nc2ncc3c(n2)-c2cccnc2Nc2ccccc2-3)c1 [Example 67, 2-[3-(9H-pyrido[2,3-b]pyrimido[4,5-d][1]benzazepin-2-ylamino)phenyl]ethanol]",,,50 to 79,50 to 79,< 50,< 50,80 to 100,

# Further lines, with some results ahead:
inhibition at 10 µM (ABL T315I) [%],inhibition at 10 µM (ABL) [%],SMILES,inhibition at 10 µM (KATO III) [%],inhibition at 10 µM (NCI-H1299) [%],inhibition at 10 µM (DLD-1) [%],inhibition at 10 µM (MDA-MB-231) [%],inhibition at 10 µM (PACA-2) [%],inhibition at 10 µM (PC-3) [%]
80 to 100,80 to 100,"Cc1ccc(CCNc2ncc3c(n2)-c2cccnc2Nc2cnccc2-3)cc1 [Example 16, N-[2-(4-methylphenyl)ethyl]-9H-dipyrido[2,3-b:4′,3′-f]pyrimido[4,5-d]azepin-2-amine]",50 to 79,< 50,< 50,< 50,< 50,
80 to 100,80 to 100,"Fc1ccc(CCNc2ncc3c(n2)-c2cccnc2Nc2cnccc2-3)cc1 [Example 19, N-[2-(4-fluorophenyl)ethyl]-9H-dipyrido[2,3-b:4′,3′-f]pyrimido[4,5-d]azepin-2-amine]",< 50,< 50,< 50,< 50,,
80 to 100,80 to 100,"c1ccc(CCNc2ncc3c(n2)-c2cccnc2Nc2cnccc2-3)cc1 [Example 28, N-(2-phenylethyl)-9H-dipyrido[2,3-b:4′,3′-f]pyrimido[4,5-d]azepin-2-amine]",50 to 79,,< 50,< 50,,
80 to 100,80 to 100,"Clc1cccc(CCNc2ncc3c(n2)-c2cccnc2Nc2cnccc2-3)c1 [Example 29, N-[2-(3-chlorophenyl)ethyl]-9H-dipyrido[2,3-b:4′,3′-f]pyrimido[4,5-d]azepin-2-amine]",80 to 100,,< 50,< 50,< 50,
80 to 100,80 to 100,"Clc1ccc(CCNc2ncc3c(n2)-c2cccnc2Nc2cnccc2-3)cc1 [Example 31, N-[2-(4-chlorophenyl)ethyl]-9H-dipyrido[2,3-b:4′,3′-f]pyrimido[4,5-d]azepin-2-amine]",80 to 100,< 50,50 to 79,,< 50,
80 to 100,80 to 100,"COc1cccc(CNc2ncc3c(n2)-c2cccnc2Nc2cnccc2-3)c1 [Example 32, N-(3-methoxybenzyl)-9H-dipyrido[2,3-b:4′,3′-f]pyrimido[4,5-d]azepin-2-amine]",< 50,50 to 79,50 to 79,< 50,< 50,
80 to 100,80 to 100,"Cc1cccc(CCNc2ncc3c(n2)-c2cccnc2Nc2cnccc2-3)c1 [Example 41, N-[2-(3-methylphenyl)ethyl]-9H-dipyrido[2,3-b:4′,3′-f]pyrimido[4,5-d]azepin-2-amine]",50 to 79,< 50,< 50,< 50,< 50,
80 to 100,80 to 100,"Fc1ccccc1CCNc1ncc2c(n1)-c1cccnc1Nc1cnccc1-2 [Example 43, N-[2-(2-fluorophenyl)ethyl]-9H-dipyrido[2,3-b:4′,3′-f]pyrimido[4,5-d]azepin-2-amine]",50 to 79,< 50,< 50,,< 50,
